From PubChem BioAssay (NCI)
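Tested at 5 concentrations; 48 h exposure; 96-well plates; endpoints linearly interpolated, else capped at highest concentration. Abbreviation: GI50, concentration required for 50% inhibition of growth. TGI marks complete inhibition of growth.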

Tests used:
Assay in all cases: NCI tumour cell line growth inhibition, 48 h; in the data active = GI50 below about 0.43 µM; inactive = the rest
TK-10 renal = tested on: TK-10 renal
NCI/ADR-RES ovarian = tested on: NCI/ADR-RES ovarian
U251 CNS = tested on: U251 CNS
UACC-257 melanoma = tested on: UACC-257 melanoma
RPMI-8226 leukemia = tested on: RPMI-8226 leukemia
HS 578T breast = tested on: HS 578T breast
SN12C renal = tested on: SN12C renal
LOX IMVI melanoma = tested on: LOX IMVI melanoma
COLO 205 colon = tested on: COLO 205 colon
PC-3 prostate = tested on: PC-3 prostate
K-562 leukemia = tested on: K-562 leukemia
NCI-H460 lung = tested on: NCI-H460 lung
SR leukemia = tested on: SR leukemia
MDA-MB-231 breast = tested on: MDA-MB-231 breast
NCI-H226 lung = tested on: NCI-H226 lung
SF-539 CNS = tested on: SF-539 CNS
NCI-H23 lung = tested on: NCI-H23 lung
IGROV1 ovarian = tested on: IGROV1 ovarian
SK-MEL-2 melanoma = tested on: SK-MEL-2 melanoma
SK-MEL-28 melanoma = tested on: SK-MEL-28 melanoma
SF-295 CNS = tested on: SF-295 CNS
HT29 colon = tested on: HT29 colon
HL-60(TB) leukemia = tested on: HL-60(TB) leukemia
OVCAR-5 ovarian = tested on: OVCAR-5 ovarian
EKVX NSCLC = tested on: EKVX NSCLC
MOLT-4 leukemia = tested on: MOLT-4 leukemia
SNB-75 CNS = tested on: SNB-75 CNS
BT-549 breast = tested on: BT-549 breast
KM12 colon = tested on: KM12 colon
SW-620 colon = tested on: SW-620 colon
HCT-15 colon = tested on: HCT-15 colon
MDA-MB-435 = tested on: MDA-MB-435
HCT-116 colon = tested on: HCT-116 colon
OVCAR-4 ovarian = tested on: OVCAR-4 ovarian
SNB-19 CNS = tested on: SNB-19 CNS
NCI-H522 lung = tested on: NCI-H522 lung
DU-145 prostate = tested on: DU-145 prostate
OVCAR-3 ovarian = tested on: OVCAR-3 ovarian
MCF7 breast = tested on: MCF7 breast
786-0 renal = tested on: 786-0 renal
CCRF-CEM leukemia = tested on: CCRF-CEM leukemia
M14 melanoma = tested on: M14 melanoma
UACC-62 melanoma = tested on: UACC-62 melanoma
ACHN renal = tested on: ACHN renal
A549 NSCLC = tested on: A549 NSCLC
UO-31 renal = tested on: UO-31 renal
CAKI-1 renal = tested on: CAKI-1 renal
OVCAR-8 ovarian = tested on: OVCAR-8 ovarian
A498 renal = tested on: A498 renal
RXF 393 renal = tested on: RXF 393 renal
SK-MEL-5 melanoma = tested on: SK-MEL-5 melanoma
SF-268 CNS = tested on: SF-268 CNS

Cc1ccc(C(=O)N=Nc2c(O)[nH]c3ccc(Cl)cc23)cc1
23.1 µM: TGI (UACC-62 melanoma)
> 50 µM: TGI (TK-10 renal) | TGI (NCI/ADR-RES ovarian) | TGI (U251 CNS) | TGI (UACC-257 melanoma) | TGI (RPMI-8226 leukemia) | TGI (HS 578T breast) | TGI (LOX IMVI melanoma) | TGI (COLO 205 colon) | TGI (PC-3 prostate) | TGI (K-562 leukemia) | TGI (NCI-H460 lung) | TGI (SR leukemia) | TGI (MDA-MB-231 breast) | TGI (SF-539 CNS) | TGI (NCI-H23 lung) | TGI (IGROV1 ovarian) | TGI (SK-MEL-2 melanoma) | TGI (SK-MEL-28 melanoma) | TGI (SF-295 CNS) | TGI (HT29 colon) | TGI (HL-60(TB) leukemia) | TGI (OVCAR-5 ovarian) | TGI (EKVX NSCLC) | TGI (MOLT-4 leukemia) | TGI (SNB-75 CNS) | TGI (BT-549 breast) | TGI (KM12 colon) | TGI (HCT-15 colon) | TGI (HCT-116 colon) | TGI (SNB-19 CNS) | TGI (NCI-H522 lung) | TGI (DU-145 prostate) | TGI (OVCAR-3 ovarian) | TGI (MCF7 breast) | TGI (786-0 renal) | TGI (CCRF-CEM leukemia) | TGI (M14 melanoma) | TGI (ACHN renal) | TGI (A549 NSCLC) | TGI (UO-31 renal) | TGI (A498 renal) | TGI (RXF 393 renal) | TGI (SK-MEL-5 melanoma) | TGI (SF-268 CNS)
24.6 µM: TGI (NCI-H226 lung)
active: GI50 (CCRF-CEM leukemia) 0.322 µM
40.6 µM: TGI (MDA-MB-435)
17.8 µM: TGI (SN12C renal)
41.4 µM: TGI (SW-620 colon)
inactive: GI50 (TK-10 renal) 43.2 µM | GI50 (NCI/ADR-RES ovarian) > 50 µM | GI50 (U251 CNS) 21.5 µM | GI50 (UACC-257 melanoma) > 50 µM | GI50 (RPMI-8226 leukemia) 5.74 µM | GI50 (HS 578T breast) > 50 µM | GI50 (SN12C renal) 8.7 µM | GI50 (LOX IMVI melanoma) 31.2 µM | GI50 (COLO 205 colon) 19 µM | GI50 (PC-3 prostate) 25.9 µM | GI50 (K-562 leukemia) 16.2 µM | GI50 (NCI-H460 lung) 15.1 µM | GI50 (SR leukemia) > 50 µM | GI50 (MDA-MB-231 breast) 18.7 µM | GI50 (NCI-H226 lung) 7.4 µM | GI50 (SF-539 CNS) > 50 µM | GI50 (NCI-H23 lung) 16.9 µM | GI50 (IGROV1 ovarian) 36.6 µM | GI50 (SK-MEL-2 melanoma) > 50 µM | GI50 (SK-MEL-28 melanoma) 41.8 µM | GI50 (SF-295 CNS) 44.5 µM | GI50 (HT29 colon) 19.8 µM | GI50 (HL-60(TB) leukemia) 38.7 µM | GI50 (OVCAR-5 ovarian) 44.6 µM | GI50 (EKVX NSCLC) > 50 µM | GI50 (MOLT-4 leukemia) 3.2 µM | GI50 (SNB-75 CNS) 16.6 µM | GI50 (BT-549 breast) 25 µM | GI50 (KM12 colon) > 50 µM | GI50 (SW-620 colon) 11.4 µM | GI50 (HCT-15 colon) 18 µM | GI50 (MDA-MB-435) 13 µM | GI50 (HCT-116 colon) 10.4 µM | GI50 (OVCAR-4 ovarian) 6.82 µM | GI50 (SNB-19 CNS) 45.6 µM | GI50 (NCI-H522 lung) 20.2 µM | GI50 (DU-145 prostate) 46.9 µM | GI50 (OVCAR-3 ovarian) 21.3 µM | GI50 (MCF7 breast) 13.5 µM | GI50 (786-0 renal) > 50 µM | GI50 (M14 melanoma) 22.7 µM | GI50 (UACC-62 melanoma) 9.3 µM | GI50 (ACHN renal) > 50 µM | GI50 (A549 NSCLC) 22.8 µM | GI50 (UO-31 renal) > 50 µM | GI50 (CAKI-1 renal) 16.1 µM | GI50 (OVCAR-8 ovarian) 10.8 µM | GI50 (A498 renal) 35.3 µM | GI50 (RXF 393 renal) 13.7 µM | GI50 (SK-MEL-5 melanoma) 23.7 µM | GI50 (SF-268 CNS) 25.4 µM
45.3 µM: TGI (CAKI-1 renal)
32.4 µM: TGI (OVCAR-8 ovarian)
18 µM: TGI (OVCAR-4 ovarian)
